Columns and labels:
[1] = biological target: T1, TYK2-JH2 (aa 575-869, in-house) protein (Homo sapiens, UniProt P29597); experiment: TYK2-JH2 biochemical assay (HTRF, blocking of TYK2-JH2 protein with its probe); assay type: binding; details: for IC50: HTRF, 0.2 nM recombinant TYK2-JH2, Probe 1; for Biochemical assay Selectivity fold (TYK2/JAK1): TYK2-JH2 vs JAK1-JH2 biochemical IC50
T1 construct: TYK2-JH2 (aa 575-869, in-house) protein; made in house
Protocol: Assay A: TYK2-JH2 Biochemical Assay
Compounds disclosed herein were tested for blocking of TYK2-JH2 (aa 575-869, in-house) protein with its probe in an assay based on Homogeneous Time Resolved Fluorescence.
Compound dilution is done according to the following protocol: (1) Prepare 500× compounds solution in DMSO from 500 uM by 5-fold dilution, total 10 doses were included; (2) Prepare 10× compounds solution in an assay buffer containing 20 mM HEPES, pH 7.5, 10 mM MgCl2, 0.005% BSA, 2 mM DTT, 0.015% Brij-35 by transferring 1 μl serial 500× stock solution into 49 μl assay buffer. 4 μl of 0.2 nM recombinant TYK2-JH2 protein was pre-incubated with 1 μl of 10×serial dilution of compounds at room temperature for 0.5 hour. Then 5 μl of 10 nM in-house Probe 1 (6-((3,5-dimethylphenyl)amino)-8-((4,26-dioxo-30-((3aS,4S,6aR)-2-oxohexahydro-1H-thieno[3,4-d]imidazol-4-yl)-7,10,13,16,19,22-hexaoxa-3,25-diazatriacontyl)amino)imidazo[1,2-b]pyridazine-3-carboxamide, KD=10 nM), 5 μl Mab Anti-6His Tb cryptate Gold (Cat: 61HI2TLB, Cisbio Bioassays) and Streptavidin-XL665(Cat: 610SAXLB, Cisobio Bioassays) mixture were added to plate and further incubated at room temperature for 1 hour. The HTRF signals (ex337 nm, em620 nm/665 nm) were read on BMG PHERAstar FS instrument. The inhibition percentage of TYK2 interaction with its probe in presence of increasing concentrations of compounds was calculated based on the ratio of fluorescence at […]. The IC50 for each compound was derived from fitting the data to the four-parameter logistic equation by Dotmatics.

[2] = biological target: T2, JAK1-JH2 protein (aa 561-860, in-house) (Homo sapiens, UniProt P23458); experiment: JAK1-JH2 biochemical assay (HTRF, blocking of JAK1-JH2 protein with its probe); assay type: binding; details: 1.17 nM recombinant JAK1-JH2, Probe 2
T2 construct: JAK1-JH2 protein (aa 561-860, in-house); made in house
Protocol: Assay B: JAK1-JH2 Biochemical Assay
Compounds disclosed herein were tested for blocking of JAK1-JH2 protein (aa 561-860, in-house) with its probe in an assay based on Homogeneous Time Resolved Fluorescence. Compound dilution is done according to the following protocol: (1) Prepare 500× compounds solution in DMSO from 500 uM by 5-fold dilution, total 10 doses were included; (2) Prepare 10× compounds solution in an assay buffer containing 20 mM HEPES, pH 7.5, 10 mM MgCl2, 0.005% BSA, 2 mM DTT, 0.015% Brij-35 by transferring 1 μl serial 500× stock solution into 49 μl assay buffer. 4 μL of 1.17 nM recombinant JAK1-JH2 protein was pre-incubated with 1 μl of 10×serial dilution of compounds at room temperature for 0.5 hour. […] The HTRF signals (ex337 nm, em620 nm/665 nm) were read on BMG PHERAstar FS instrument. The inhibition percentage of JAK1 interaction with its probe in presence of increasing concentrations of compounds was calculated based on the ratio of fluorescence at 615 nm to that at 665 nm. The IC50 for each compound was derived from fitting the data to the four-parameter logistic equation by Dotmatics.

[3] = tested on: JAK2, TYK2/p-STAT4 (Tyr693) activated by IL-12 in NK-92 cell line; experiment: IL-12-JAK2, TYK2/p-STAT4 (Tyr693) inhibition cellular assay; assay type: cell-based; details: for IC50: NK92, 0.5 h, NK-92 cells, IL-12 40 ng/ml, 30 min, read-out: Cellular assay pSTAT4/IL-12 IC50; for Cellular assay Selectivity fold (TYK2/JAK1): pSTAT4/IL-12 vs pSTAT3/IL-6 cellular IC50
Description: Assay C: IL-12-JAK2, TYK2/p-STAT4 (Tyr693) Inhibition IC50 Cellular Assay
To evaluate the inhibition effect of compounds disclosed herein on JAK2, TYK2/p-STAT4 (Tyr693) activated by IL-12 in NK-92 cell line, NK-92 cells were collected and washed 3 times by DPBS and resuspended in MEM-α(GIBCO,Cat #12561056) with 10% FBS (Gibco, Cat #10099, Lot #1891605), without IL-2 (R&D systems,Cat #202-IL), starved overnight. Cells were collected and resuspended in 1640 medium (phenol red free, Gibco, Cat #11835-030) with 0.1% BSA, and 12.5 μl/5×10^4/well cell suspension were seeded to the 96-well plate (Corning, Cat #3799). Then cells were treated with compounds diluted in 0.2% DMSO 1640 medium, at 37° C., 1 h. Dilution is done according to the following protocol: (1) make 500× compounds solution in DMSO from 5 mM by 4-fold dilution, total 8 doses were included; (3) make 2× compounds solution in assay medium by transferring 0.5 μl serial 500× stock solution into 125 μl assay medium; (4) 15 μl of 2× serial solution is added to cells and incubate at 37° C. for 1 h, the final compound conc. is 10000,2500,625,156.25,39,9.8,2.4 and 0.61 nM, respectively. After 1 h, cells were treated with 2.5 μl medium containing IL-12 at 37° C. (R&D systems, Cat #219-IL-005, final conc.40 ng/ml), 30 min. Following cells were lysed with 7.5 μl lysis buffer at RT, shaking on shaker for 1 h. 10 μL of cell lysate were transferred to a PE 384-well Proxiplate detection plate, and 5 μL of pre-mixed Alphascreen beads were added to each well. Covered the plate with a plate sealer, span 1000 rpm for 1 min, mix, Incubated overnight at room temperature. Read on BMG PheraStar with Alphascreen protocol. IC 50 values were calculated by fitting dependent data to the four-parameter logistic model using dotmatics software. The assay was performed by using AlphaLISA SureFire Ultra p-STAT4 (Tyr693) Assay Kit—High Volume (PE, Cat #ALSU-PST4-A-HV).

[4] = tested on: JAK1/p-STAT3(Tyr705) activated by IL-6 in TF-1 cell line; experiment: IL-6-JAK1/p-STAT3(Tyr705) inhibition cellular assay; assay type: cell-based; details: Homo sapiens, 0.5 h; TF-1 cells, IL-6 50 ng/ml, 30 min; read-out: Cellular assay pSTAT3/IL-6 IC50
Description: Assay D: IL-6-JAK1/p-STAT3(Tyr705) Inhibition IC50 Cellular Assay
To evaluate the inhibition effect of compounds disclosed herein on JAK1/p-STAT3(Tyr705) activated by IL-6 in TF-1 cell line, TF-1 cells were collected and washed 3 times by DPBS and resuspended in RPMI-1640 (phenol red free, Gibco, Cat #11835-030) with 0.1% FBS (Gibco, Cat #10099, Lot #1891605), without GM-CSF(R&D systems,Cat #215-GM-050), starved overnight. Cells were collected and resuspended in 1640 medium (phenol red free, Gibco, Cat #11835-030) with 0.1% BSA, and 12.5 μl/10×10^4/well cell suspension were seeded to the 96-well plate (Corning, Cat #3799). Then cells were treated with compounds diluted in 0.2% DMSO 1640 medium, at 37° C., 1 h. Dilution is done according to the following protocol: (1) make 500× compounds solution in DMSO from 5 mM by 4-fold dilution, total 8 doses were included; (3) make 2× compounds solution in assay medium by transferring 0.5 μl serial 500× stock solution into 125 μl assay medium; (4) 15 μl of 2× solution is added to cells and incubate at 37° C. for 1 h, the final compound conc. is 10000,2500,625,156.25,39,9.8,2.4 and 0.61 nM, respectively. After 1 h, cells were treated with 2.5 μl medium containing IL-6 at 37° C. (R&D systems, Cat #206-IL-010, final conc.50 ng/ml), 30 min. Following cells were lysed with 10 μl lysis buffer at RT, shaking on shaker for 1 h. 16 μL of cell lysate were transferred to a PE 384-well HTRF detection plate, and 4 μL of pre-mixed HTRF antibodies were added to each well. Covered the plate with a plate sealer, span 1000 rpm for 1 min, mix, Incubated overnight at room temperature. Read on BMG PheraStar with HTRF protocol (337 nm-665 nm-620 nm). IC 50 values were calculated by fitting dependent data to the four-parameter logistic model using dotmatics software. The assay was performed by using HTRF Phospho-STAT3(Tyr705) Cellular Assay Kit (Cisbio, Cat #62AT3PEG).

T2 sequence (P23458 561-860): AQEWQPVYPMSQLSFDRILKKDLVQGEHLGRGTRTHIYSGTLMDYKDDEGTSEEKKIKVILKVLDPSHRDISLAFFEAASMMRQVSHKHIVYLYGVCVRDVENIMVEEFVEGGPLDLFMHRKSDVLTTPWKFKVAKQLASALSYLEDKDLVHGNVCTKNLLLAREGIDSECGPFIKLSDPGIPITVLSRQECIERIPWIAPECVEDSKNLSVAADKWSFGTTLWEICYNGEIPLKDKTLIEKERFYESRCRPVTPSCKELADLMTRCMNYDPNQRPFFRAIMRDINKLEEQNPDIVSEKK
T1 sequence (P29597 575-869): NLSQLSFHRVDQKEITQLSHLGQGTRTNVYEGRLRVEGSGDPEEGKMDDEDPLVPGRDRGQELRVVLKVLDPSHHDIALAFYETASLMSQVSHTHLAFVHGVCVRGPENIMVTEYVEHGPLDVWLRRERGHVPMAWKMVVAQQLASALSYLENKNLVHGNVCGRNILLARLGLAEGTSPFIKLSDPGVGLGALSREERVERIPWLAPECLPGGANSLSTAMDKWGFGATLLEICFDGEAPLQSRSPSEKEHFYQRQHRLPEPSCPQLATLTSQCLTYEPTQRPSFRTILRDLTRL

Row | IC50 [1] [nM] | Biochemical assay Selectivity fold (TYK2/JAK1) [1] [fold] | IC50 [2] [nM] | IC50 [3] [nM] | IC50 [4] [nM] | SMILES | Cellular assay Selectivity fold (TYK2/JAK1) [3] [fold]
1 | 0.08 | 15 | 1.2 | 309 | > 10000 | CNC(=O)c1nnc(NC(=O)C2CC2)cc1Nc1nc2ccc(OC3CN(C(C)=O)C3)cn2n1 [Example C4, 4-((6-((1-acetylazetidin-3-yl)oxy)-[1,2,4]triazolo [1,5-a]pyridin-2-yl)amino)-6-(cyclopro-panecarbox-amido)-N-methyl-pyridazine-3-carboxamide] | >32
2 | 0.143 | 11 | 1.56 | 1320 | > 10000 | CNC(=O)c1nnc(NC(=O)C2CC2)cc1Nc1nc2ccc(OC3CN(C(=O)CC#N)C3)cn2n1 [Example C5, 4-((6-((1-(2-cyanoacetyl)azetidin-3-yl)oxy)-[1,2,4]triazolo[1,5-a]pyridin-2-yl)amino)-6-(cyclopro-panecarbox-amido)-N-methyl-pyridazine-3-carboxamide] | >8
3 | 0.099 | 12 | 1.21 | 68.4 | > 10000 | CNC(=O)c1nnc(NC(=O)C2CC2)cc1Nc1nc2ccc(OC3CN(C4CCOC4)C3)cn2n1 (stereo not drawn) [Example D1, 6-(cyclopropanecarboxamido)-N-methyl-4-((6-((1-(tetrahydrofuran-3-yl)azetidin-3-yl)oxy)-[1,2,4]triazolo[1,5-a]pyridin-2-yl)amino)pyridazine-3-carboxamide] | >146
4 | 0.047 | 34 | 1.6 | 13.3 | 6330 | CNC(=O)c1nnc(NC(=O)C2CC2)cc1Nc1nc2ccc(N3CCC3)cn2n1 [Example E1, 4-((6-(azetidin-1-yl)-[1,2,4]triazolo[1,5-a]pyridin-2-yl)amino)-6-(cyclopropanecarboxamido)-N-methylpyridazine-3-carboxamide] | 475
5 | 0.047 | 26 | 1.2 | 9.01 | 9800 | CNC(=O)c1nnc(NC(=O)C2CC2)cc1Nc1nc2ccc(N3CC(OC)C3)cn2n1 [Example E2, 6-(cyclopropanecarboxamido)-4-((6-(3-methoxyazetidin-1-yl)-[1,2,4]triazolo[1,5-a]pyridin-2-yl)amino)-N-methylpyridazine-3-carboxamide] | 1087
6 | 0.038 | 34 | 1.3 | 8.9 | 4060 | [2H]C([2H])([2H])NC(=O)c1nnc(NC(=O)C2CC2)cc1Nc1nc2ccc(N3CCC3)cn2n1 [Example E3, 4-((6-(azetidin-1-yl)-[1,2,4]triazolo [1,5-a]pyridin-2-yl)amino)-6-(cyclopropanecarbox-amido)-N-(methyl-d3) pyridazine-3-carboxamide] | 453
7 | 0.044 | 34 | 1.5 | 10 | 5400 | CNC(=O)c1nnc(NC(=O)C2CC2)cc1Nc1nc2ccc(N3CC(CC(F)F)C3)cn2n1 [Example E4, 6-(cyclopropanecar-boxamido)-4-((6-(3-(2,2-difluoroethyl)azetidin-1-yl)-[1,2,4]triazolo[1,5-a]pyridin-2-yl)amino)-N-methylpyridazine-3-carboxamide] | 540
8 | 0.064 | 26 | 1.7 | 16 | 7270 | CNC(=O)c1nnc(NC(=O)C2CC2)cc1Nc1nc2ccc(N3CC(N(C)C)C3)cn2n1 [Example E5, 6-(cyclopropanecar-boxamido)-4-((6-(3-(dimethylamino)azetidin-1-yl)-[1,2,4]triazolo [1,5-a]pyridin-2-yl)amino)-N-methylpyridazine-3-carboxamide] | 454
